# Measurements reported in patent US8003595B2, “Amino acid sequences facilitating penetration of a substance of interest into cells and/or cell nuclei” (Cellectis, priority 2000, dated 2011).
# Read-outs that look alike come from different tables or passages of the source. Marks after values point to notes of the source that are not given here. Where no end group is shown, it is not given here.
# Columns and labels:
# [1] = tested on: Enterococcus faecalis (ATCC 29212); test: microbe, parasite or virus in culture; assay type: cell-based
# Description: (§1) The gram-positive bacterial strains are: Enterococcus faecalis (ATCC 29212), and Staphylococcus aureus (ATCC 25923) and the gram-negative strains are: Escherichia coli (ATCC 25922), Pseudomonas aeruginosa (ATCC 27853) and Salmonella typhimurim (clinical isolate), Salmonella typhiTy2 (WHO). The bacteria are cultured with shaking all night at 37° C., then recultured at a dilution of 1:50 in some fresh Luria-Bertani (LB) medium for 2 hours. The bacterial concentration is adjusted to […], and 50 μl is distributed in 96-well plates with an equal volume of peptides diluted half and half (256-0.5 μg/ml) in LB medium. […] To determine the minimum bactericide concentration, 10 μl from each well is spread on gelose plates in LB medium.
# (§2) The results are expressed as the peptide concentration in MBC (μM).
# [2] = tested on: Escherichia coli (ATCC 25922); test: microbe, parasite or virus in culture; assay type: cell-based
# Description: as §1, §2
# [3] = tested on: Pseudomonas aeruginosa (ATCC 27853); test: microbe, parasite or virus in culture; assay type: cell-based
# Description: as §1, §2
# [4] = tested on: Staphylococcus aureus (ATCC 25923); test: microbe, parasite or virus in culture; assay type: cell-based
# Description: as §1, §2
# [5] = tested on: Salmonella typhimurim (clinical isolate); test: Antibacterial activity of cationic peptides (MBC); assay type: cell-based; conditions: S. typhimurium
# Description: as §1, §2
# [6] = tested on: Salmonella typhiTy2 (WHO); test: microbe, parasite or virus in culture; assay type: cell-based, S. typhi-Ty2
# Description: as §1, §2
# 3T3 cells = test: In vitro transfection with luciferase plasmid using peptides; assay type: cell-based, mouse; conditions: for RLU value relative to peptide SEQ ID NO: 41: 3T3 cells; for luciferase expression RLU: peptide and plasmid pCMVLUC complexed at 1.6 nmoles/μg
# Description: Technique: The plasmid pCMVLUC (carrying the gene for luciferase) provided by Qiagen is used according to their instructions. 3T3 cells are sown the night before in 24-well plates (8×10^4 cells/well) in the complete culture medium.
# The peptides and the plasmid are complexed in a ratio of 1.6 nmoles/μg in 50 μl of NaCl 0.15M for 20 minutes at laboratory temperature. The cells are then washed, and the peptide-plasmid complex added to the cells in 0.5 ml of complete medium. After 5 hours of incubation at 37° C., the reaction medium is eliminated, and 1 ml of complete medium is added to the cells. After 24 hours of culture, the cells are then washed 3 times with PBS and lysed with 100 μl of lysis buffer (Promega) containing 1% Triton X-100 and 2 mM DTT for 15 minutes. The luciferase test is done on the cell lysate after centrifugation. The quantity of protein in the lysate is measured using the Bradford Test (Bio-Rad) and calculated according to a curve established with bovine gamma globulins. The luciferase activity is estimated on 15 μl of lysate plus 100 μl of reagent of luciferase containing luciferin (Promega). The relative luciferase units (RLU) are measured in a luminometer (Berthold Systems) and reported in mg of protein.
# HT29 cells = test: cells; assay type: cell-based; conditions: Homo sapiens, HT-29, Table 26, read-out: % inhibition of the growth of HT29 cells
# Text: N-phthalimidoglutarimide (thalidomide) is a molecule that has a great variety of properties, such as a teratogenic effect, reduction of the production of TNF-α by the monocytes and suppression of angiogenesis. It has been shown that the teratogenic activity depends on the glutarimide residue, while the antiangiogenic effect depends on the phthaloyl group. We therefore prepared peptide SEQ ID NO: 46 derived from peptide SEQ ID NO: 26 (HBP3)2 and added glycyl phthaloyl in N-terminal. The technique used to test the activity of phthaloyl-HBP3 is the same as the one previously described for aspirin. The results of the inhibition of the growth (%) of HT29 cells shown in Table 27 are calculated as a percentage of the mean optical density in the wells of cells containing dilutions of the samples being tested and the mean optical density of the wells of cells that received only medium.
# cells = test: Penetration of biotinylated peptides inside cells (microscopy, S-PO coloration); assay type: cell-based; conditions: biotinylated peptides 50 to 6 μg/ml, 1-18 hours, revealed with S-PO
# Description: The cells are cultivated in the presence of the different peptides carrying, on the N-terminal side, biotin in decreasing concentrations (50 to 6 μg/ml) in the culture medium for variable times (1-18 hours).
# At the end of the culture, the cells are washed three times with PBS (0.15 M NaCl buffered with 0.01 M potassium phosphate buffer pH 7.4) then fixed 15 minutes in ethanol at −20° C. The penetration of the peptide is evaluated after incubation for 30 minutes with streptavidin conjugated with peroxidase (abbreviated S-PO for streptavidin-peroxidase). Then, the S-PO is eliminated, and the cells are washed. […] With the other peptides, positive colorations, but of variable intensity, were noted.
# H1299 cells = test: Internalization of biotinylated peptide/S-PO complexes; assay type: cell-based, human; conditions: peptide: S-PO complexes of 4:1, peptide concentration of 1 μg
# Description: A biotinylated/S-PO peptide or biotinylated/A-PO complex (A-PO for avidin-peroxidase) is prepared extemporaneously in two ways:
# 1) either in a peptide: S-PO or A-PO molar ratio of 4:1 (for example, 1.4 μg of peptide with a molecular weight of 3500 to 10 μg of S-PO; the weight of S-PO used varies depending on the peptides since their molecular weights are different).
# 2) or in a peptide: S-PO or A-PO molar ratio of 25:1 (for example 1.7 μg of peptide with a molecular weight of 3500 to 1 μg of S-PO).
# The complexes are prepared by incubating the biotinylated peptide with S-PO or A-PO in PBS in a volume of 5 to 10 μl for 15 minutes at laboratory temperature. They are then diluted in 1 ml of complete culture medium, filtered on a 0.2 micron membrane and incubated with the cells for 4 hours. The cells are then washed three times with PBS.
# To study the penetration of the complexes under a microscope, the cells are fixed as before for 15 minutes in ethanol at −20° C., they are washed with PBS, and the activity of the internalized peroxidase is shown by diaminobenzidine in the presence of H2O2. To measure the quantity of peptide/S-PO or A-PO complexes internalized, the cells are trypsinized, transferred into microtubes and counted. They are washed twice by centrifugation, then the residue is suspended in 200 μl of lysis buffer (Tris buffer, 0.1 M, pH8, 0.5% Nonidet). After 15 minutes, the peroxidase contained in the lysis buffer is dosed onto 96-well plates with ortho-dianisidine and H2O2 by comparison with a standard curve for S-PO. The reading is taken at 450 nm. The quantity contained in the different samples is expressed in picograms (pg) per 10^4 cells.
# Table 7 below reports the results of evaluating the influence of SEQ ID NO: 1 on the penetration of peptides coupled to SEQ ID NO: 1 into H1299 cells, where
# Concentration a: 25 peptides to one molecule of S-PO (1 μg),
# Concentration b: 4 peptides to one molecule of S-PO (10 μg).
# [7] = tested on: gram-positive and gram-negative bacterial strains; test: Antibacterial activity of cationic peptides, summary over strains; assay type: cell-based; conditions: summary of Table 29
# Description: as §1
# However, when peptide HPB13 (SEQ ID NO: 38) is coupled with peptide SEQ ID NO: 24, it enhances its activity by a factor of 50 to 100 (peptide SEQ ID NO: 45). […] None these peptides are active on gram-positive bacteria.
# CHO cells = test: In vitro transfection with luciferase plasmid using peptides; assay type: cell-based, Chinese hamster; conditions: for luciferase expression RLU: 3 μg of plasmid PCMV-LUC and 3.3 nmoles of peptide
# Description: The plasmid used is PCMV-LUC (6.4 kb) carrying the luciferase gene under the control of the promoter of the human cytomegalovirus.
# The plasmid-peptide complexes are prepared by adding 3 μg of plasmid to 50 μl of NaCl, 0.15 M and 3.3 nmoles of SEQ ID NO: 22 and 23 for 15 minutes. The complexes are prepared in triplicate.
# CHO cells are cultivated in the complete medium MEM Alpha containing 6% fetal calf serum and sown with 5×10^4 cells per well on a 24-well plate the evening before the experiment. The wells are then emptied of the medium, and the plasmid-peptide complex is added to them (3 μg of plasmid and 3.3 nmoles of peptide in 0.5 ml of complete medium for 5 hours at 37° C.). The medium is then replaced with the complete medium, and the culture is continued for 18-20 hours. The cells are then washed three times with PBS, then lysed with 100 μl of lysis buffer (Promega) containing 1% Triton X-100 and 2 mM DTT.
# Then a 15 μl sample of the lysate is taken to measure the luciferase with the Promega luciferin kit and 15 other μl to calculate the quantity of proteins in the lysate using the Bradford Test. The relative luciferase units (RLU) are reported in mg of proteins.
compound,measurement,setting,value
"CC(C)C[C@H](NC(=O)[C@H](CCCCN)NC(=O)[C@H](C)NC(=O)[C@H](CC(C)C)NC(=O)[C@H](CCCCN)NC(=O)[C@H](CCCCN)NC(=O)[C@H](C)NC(=O)[C@H](CC(C)C)NC(=O)[C@H](CCCCN)NC(=O)[C@H](C)NC(=O)[C@H](CC(C)C)NC(=O)[C@@H](N)CCCCN)C(=O)N[C@@H](C)C(=O)N[C@@H](CCCCN)C(=O)O [SEQ ID NO: 24, reference compound]",MBC,[1]; E. faecalis,>110 µM
same,MBC,"[2]; E. coli, read-out: MBC",55 µM
same,MBC,[3]; P. aeruginosa,27.5 µM
same,MBC,[4]; S. aureus,>110 µM
same,MBC,[5],110 µM
same,MBC,[6]; S. typhi-Ty2,27.5 µM
SEQ ID NO: 42: SEQ ID NO: 39 (HBP10) plus 13 N-terminal lysines (KKKKKKKKKKKKKSRRARRSPRHLGSG; listed as Homo sapiens),RLU value relative to peptide SEQ ID NO: 41,3T3 cells,5.5 times
same,luciferase expression RLU,3T3 cells,5 × 10^6/mg of protein
"CC(=O)Oc1ccccc1C(=O)O [Natural aspirin, aspirin, reference compound]",inhibition at 100 µg/mL,HT29 cells; 100 μg/ml,0%
same,inhibition at 200 µg/mL,HT29 cells; 200 μg/ml,3%
same,inhibition at 500 µg/mL,HT29 cells; 500 μg/ml,6%
same,inhibition at 1000 µg/mL,HT29 cells; 1000 μg/ml,48%
"CC1(C)S[C@@H]2[C@H](NC(=O)[C@H](N)c3ccccc3)C(=O)N2[C@H]1C(=O)O [Ampicillin, reference compound]",MBC,"[1]; Enterococcus faecalis, ATCC29212, E. faecalis",2.75 µM
same,MBC,"[2]; Escherichia coli, ATCC25922, E. coli, read-out: MBC",22 µM
same,MBC,"[3]; Pseudomonas aeruginosa, ATCC27853, P. aeruginosa",> 696 µM
same,MBC,"[4]; Staphylococcus aureus, ATCC25923, S. aureus",< 0.68 µM
same,MBC,[5],11 µM
same,MBC,"[6]; Salmonella, TYPHI",5.5 µM
KLAKLAKKLAKLAKGKRKKKGKLGKKRDP [SEQ ID NO: 44],MBC,[1]; E. faecalis,>110 µM
same,MBC,"[2]; E. coli, read-out: MBC",1.7 µM
same,MBC,[3]; P. aeruginosa,>110 µM
same,MBC,[4]; S. aureus,>110 µM
same,MBC,[5],1.27 µM
same,MBC,[6]; Ty2 (WHO),0.64 µM
VKRGLKLVKRGLKL [SEQ ID NO: 2],intracellular cytochemical coloration,cells,Faint coloration
same,S-PO internalized,H1299 cells,84 pg/10^4 cells
same,MBC,[1]; ATCC 29212,>160 µM
same,MBC,[2]; ATCC 25922,>160* μM
same,MBC,[3]; ATCC 27853,>160 µM
same,MBC,[4]; ATCC 25923,>160 µM
same,MBC,[5],>160 µM
same,bactericide / anti-microbial activity,[7],not active
SEQ ID NO: 41: SEQ ID NO: 28 (HBP3)2) plus 13 N-terminal lysines (KKKKKKKKKKKKKSERKKRRRESRKKRRRES; listed as Homo sapiens),luciferase expression RLU,3T3 cells,0.9 × 10^6/mg of protein
SEQ ID NO: 23: Peptide containing 12 lysines (K) and SEQ ID NO: 5 (KKKKKKKKKKKKVKRGLKLRQKYNKRAMDY; Mus musculis x Rattus norvegicus),luciferase expression RLU,CHO cells,11.5 10^6/mg of proteins
same,increase of luciferase expression compared with SEQ ID NO: 22,CHO cells; CHO cells,6 times
KLAKLAKKLAKLAKKHLKKHLKKHLK [SEQ ID NO: 45],MBC,[1]; E. faecalis,>680 µM
same,MBC,"[2]; E. coli, read-out: MBC",1 µM
same,MBC,[3]; P. aeruginosa,0.5 µM
same,MBC,[4]; S. aureus,>680 µM
same,MBC,[5],1 µM
same,MBC,[6]; Ty2 (WHO),0.66 µM
SEQ ID NO: 22: Peptide containing 12 lysines (K) and SEQ ID NO: 6 (KKKKKKKKKKKKTYYSDTVKGRFTRQKYNKRA; Mus musculis x Rattus norvegicus),luciferase expression RLU,CHO cells,1.9 10^6/mg of proteins
SEQ ID NO: 40: SEQ ID NO: 10 (1047) plus 13 N-terminal lysines (KKKKKKKKKKKKKVKRGLKLRHVRPRVTRMDV; listed as Homo sapiens),RLU value relative to peptide SEQ ID NO: 41,3T3 cells,2.6 times
same,luciferase expression RLU,3T3 cells,1.9 × 10^6/mg of protein
